# Laboratory results taken from patent US10654837B2, “Sulphamoylaryl derivatives and use thereof as medicaments for the treatment of liver fibrosis” (Janssen Pharmaceutica NV, priority 2017, dated 2020).
# Biological target: T1, 5HTR2B (Homo sapiens, UniProt P41595)
# T1 construct: host or cells: human Maverick/293 cells
# Assay: 5HTR2B antagonist activity, calcium mobilization assay in human Maverick/293 cells (serotonin as agonist)
# Assay type: cell-based
# Details: intracellular calcium, emission 525 nm, read-out: Ca assay IC50
# Protocol: The 5HTR2B antagonist activity was measured using human Maverick/293 cells in a calcium mobilization assay. The measurement starting with plating human Maverick/293 cells (log phase) onto 96-well black and incubate at 37° C. overnight, Followed by starving cells for 2 h by changing complete medium to DMEM without FBS, removing the medium from the 96-well plate. Loading staining calcium buffer into each well and incubated the plate at 37° C. for 50 min. After removal of staining calcium buffer, diluted antagonist were added into the well, incubate 15 to 30 minutes. Dispense serotonin as the 5HTR2B agonists into each well. Intracellular calcium concentration is recorded for 80 seconds by monitoring an emission at a wavelength of 525 nm with an excitation wavelength of 485 nm. Inhibition efficiency of the cell line was determined following the equation: % Inhibition=100%−(D−B)/(S−B)*100%. (S: The peak value in the presence of agonist serotonin; D: The peak value in the presence of different dilution compound or serotonin; B: The peak value in the presence of calcium HBSS buffer only). […] A dose response curve was fitted using nonlinear regression model with a sigmoidal dose response. The IC50 was automatically produced by GraphPad Prism 5.0.
# T1 sequence (P41595 whole entry): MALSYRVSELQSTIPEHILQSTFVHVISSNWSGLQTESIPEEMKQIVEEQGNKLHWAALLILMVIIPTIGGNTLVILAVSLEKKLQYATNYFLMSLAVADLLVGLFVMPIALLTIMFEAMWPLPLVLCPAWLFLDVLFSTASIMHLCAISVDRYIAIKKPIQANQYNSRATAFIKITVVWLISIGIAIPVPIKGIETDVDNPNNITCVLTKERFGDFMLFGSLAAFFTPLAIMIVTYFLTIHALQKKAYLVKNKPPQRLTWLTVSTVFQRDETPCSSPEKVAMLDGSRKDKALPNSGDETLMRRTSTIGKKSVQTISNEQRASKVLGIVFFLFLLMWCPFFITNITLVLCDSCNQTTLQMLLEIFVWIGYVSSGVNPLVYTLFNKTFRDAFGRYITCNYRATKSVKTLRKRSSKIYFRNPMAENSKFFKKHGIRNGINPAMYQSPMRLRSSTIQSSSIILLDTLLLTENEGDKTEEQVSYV
row,Structure (SMILES),IC50 [nM]
1,"COc1ccc(S(=O)(=O)NC(C)C)cc1C(=O)Nc1ccc(F)c(C)c1 [Compound 8, N-(4-Fluoro-3-methylphenyl)-5-(N-isopropylsulfamoyl)-2-methoxybenzamide]",2.5
2,"COc1ccc(S(=O)(=O)N[C@H]2CCOC2)cc1C(=O)Nc1ccccc1F [Compound 99, (S)—N-(2-Fluorophenyl)-2-methoxy-5-(N-(tetrahydrofuran-3-yl)sulfamoyl) benzamide]",1.6
3,"COc1ccc(S(=O)(=O)NC2(C)COC2)cc1C(=O)Nc1ccc(F)c(C(F)F)c1 [Compound 36, N-(3-(Difluoromethyl)-4-fluorophenyl)-2-methoxy-5-(N-(3-methyloxetan-3-yl)sulfamoyl)benzamide]",2.7
4,"COc1ccc(S(=O)(=O)N[C@H]2CCOC2)cc1C(=O)Nc1cc(F)cc(Cl)c1 [Compound 68, (S)—N-(3-Chloro-5-fluorophenyl)-2-methoxy-5-(N-(tetrahydrofuran-3-yl)sulfamoyl)benzamide]",2.9
5,"COc1ccc(S(=O)(=O)N[C@H]2CCOC2)cc1C(=O)Nc1ccc(C(F)(F)F)cc1 [Compound 101, (S)-2-Methoxy-5-(N-(tetrahydrofuran-3-yl)sulfamoyl)-N-(4-(trifluoromethyl)phenyl)benzamide]",219
6,"COc1ccc(S(=O)(=O)N[C@@H]2CCNC2)cc1C(=O)Nc1ccc(F)cc1F [Compound 188, (R)—N-(2,4-difluorophenyl)-2-methoxy-5-(N-(pyrrolidin-3-yl)sulfamoyl) benzamide]",1.6
7,"COc1ccc(S(=O)(=O)N[C@H]2CCOC2)cc1C(=O)Nc1cc(F)ccc1F [Compound 69, (S)—N-(2,5-Difluorophenyl)-2-methoxy-5-(N-(tetrahydrofuran-3-yl)sulfamoyl) benzamide]",1.5
8,"COc1ccc(S(=O)(=O)NC2CC(C)C2)cc1C(=O)Nc1ccc(F)c(C)c1 (stereo not drawn) [Compound 7, N-(4-Fluoro-3-methylphenyl)-2-methoxy-5-(N-(3-methylcyclobutyl)sulfamoyl) benzamide]",5.4
9,"COc1ccc(S(=O)(=O)N[C@H]2CCOC2)cc1C(=O)Nc1cc(Cl)cc(C#N)c1 [Compound 94, (S)—N-(3-Chloro-5-cyanophenyl)-2-methoxy-5-(N-(tetrahydrofuran-3-yl)sulfamoyl)benzamide]",12
10,"COc1ccc(S(=O)(=O)N[C@H]2CCNC2)cc1C(=O)Nc1ccc(F)c(C)n1 [Compound 175, (S)—N-(5-Fluoro-6-methylpyridin-2-yl)-2-methoxy-5-(N-(pyrrolidin-3-yl)sulfamoyl)benzamide]",1.6
11,"COc1ccc(S(=O)(=O)N[C@H]2CCOC2)cc1C(=O)Nc1cccc(C#N)c1F [Compound 92, (S)—N-(3-Cyano-2-fluorophenyl)-2-methoxy-5-(N-(tetrahydrofuran-3-yl)sulfamoyl)benzamide]",136
12,"COc1ccc(S(=O)(=O)N[C@H]2CCOC2)cc1C(=O)Nc1ccc(C)cc1 [Compound 129, (S)-2-Methoxy-5-(N-(tetrahydrofuran-3-yl)sulfamoyl)-N-(p-tolyl)benzamide]",12
13,"COc1ccc(S(=O)(=O)N[C@H](C)CC#N)cc1C(=O)Nc1ccc(F)c(C)c1 (single isomer, unassigned) [Compound 11b, (R*)-5-(N-(1-Cyanopropan-2-yl)sulfamoyl)-N-(4-fluoro-3-methylphenyl-2-methoxybenzamide]",5.1
14,"COc1ccc(S(=O)(=O)N[C@H]2CCOC2)cc1C(=O)Nc1ncccc1C [Compound 133, (S)-2-Methoxy-N-(3-methylpyridin-2-yl)-5-(N-(tetrahydrofuran-3-yl)sulfamoyl) benzamide]",405
15,COc1ccc(S(=O)(=O)N[C@H]2CCOC2)cc1C(=O)Nc1ccc(C#N)c(F)c1 [Compound 90],1360
16,"COc1ccc(S(=O)(=O)N[C@H]2CCOC2)cc1C(=O)Nc1ccc(Br)cc1 [Compound 125, (S)—N-(4-Bromophenyl)-2-methoxy-5-(N-(tetrahydrofuran-3-yl)sulfamoyl) benzamide]",28
17,"COc1ccc(S(=O)(=O)NC2CN(C)C2)cc1C(=O)Nc1ccc(F)c(C)n1 [Compound 170, N-(5-Fluoro-6-methylpyridin-2-yl)-2-methoxy-5-(N-(1-methylazetidin-3-yl)sulfamoyl)benzamide]",58
18,"COc1c(F)cc(S(=O)(=O)N[C@H]2CCOC2)cc1C(=O)Nc1ccc(F)c(C)c1 [Compound 200, (S)-3-fluoro-N-(4-fluoro-3-methylphenyl)-2-methoxy-5-(N-(tetrahydrofuran-3-yl)sulfamoyl)benzamide]",3.3
19,"COc1ccc(S(=O)(=O)N[C@H]2CCOC2)cc1C(=O)Nc1ccc(F)cc1 [Compound 122, (S)—N-(4-Fluorophenyl)-2-methoxy-5-(N-(tetrahydrofuran-3-yl)sulfamoyl) benzamide]",0.6
20,"COc1ccc(S(=O)(=O)N[C@H]2CC[C@@H](O)CC2)cc1C(=O)Nc1ccc(F)c(C)n1 [Compound 27, N-(5-Fluoro-6-methylpyridin-2-yl)-5-(N-((cis)-4-hydroxycyclohexyl)sulfamoyl)-2-methoxybenzamide]",1.1
21,"COc1ccc(S(=O)(=O)NC(C)CO)cc1C(=O)Nc1ccc(F)c(C)c1 (stereo not drawn) [Compound 10, N-(4-Fluoro-3-methylphenyl)-5-(N-(1-hydroxypropan-2-yl)sulfamoyl)-2-methoxybenzamide]",4.5
22,"COc1ccc(S(=O)(=O)NC2CC(C)(C)C2)cc1C(=O)Nc1ccc(F)c(C)c1 [Compound 14, 5-(N-(3,3-Dimethylcyclobutyl)sulfamoyl)-N-(4-fluoro-3-methylphenyl)-2-methoxybenzamide]",14.6
23,"COc1ccc(S(=O)(=O)N[C@H]2CCOC2)cc1C(=O)Nc1c(F)cc(Cl)cc1F [Compound 91, (S)—N-(4-Chloro-2,6-difluorophenyl)-2-methoxy-5-(N-(tetrahydrofuran-3-yl)sulfamoyl)benzamide]",92
24,"COc1ccc(S(=O)(=O)N[C@H]2CCOC2)cc1NC(=O)c1ccc(F)c(C)c1 [Compound 203, (S)-4-Fluoro-N-(2-methoxy-5-(N-(tetrahydrofuran-3-yl)sulfamoyl)phenyl)-3-methylbenzamide]",13
25,"COc1ccc(S(=O)(=O)N[C@H]2CCOC2)cc1C(=O)Nc1cc(F)cc(F)c1 [Compound 67, (S)—N-(3,5-Difluorophenyl)-2-methoxy-5-(N-(tetrahydrofuran-3-yl)sulfamoyl)benzamide]",8.8
26,"COc1ccc(S(=O)(=O)NC2CC(F)(F)C2)cc1C(=O)Nc1ccc(F)c(C)c1 [Compound 1, 5-(N-(3,3-Difluorocyclobutyl)sulfamoyl)-N-(4-fluoro-3-methylphenyl)-2-methoxybenzamide]",2.3
27,"COc1ccc(S(=O)(=O)N[C@H]2CCOC2)cc1C(=O)Nc1ccc(C#N)cc1 [Compound 104, (S)—N-(4-Cyanophenyl)-2-methoxy-5-(N-(tetrahydrofuran-3-yl)sulfamoyl) benzamide]",201

# Now from value to compound:
row,IC50 [nM],Structure (SMILES)
1,167,"COc1ccc(S(=O)(=O)N[C@H](C)C(N)=O)cc1C(=O)Nc1ccc(F)c(C(F)F)c1 [Compound 34b, (R)-5-(N-(1-Amino-1-oxopropan-2-yl)sulfamoyl)-N-(3-(difluoromethyl)-4-fluorophenyl)-2-methoxybenzamide]"
2,2.8,"COc1ccc(NS(=O)(=O)[C@@H]2CCOC2)cc1C(=O)Nc1ccc(F)c(C)c1 (single isomer, unassigned) [Compound 202b, (R*)N-4-fluoro-3-methylphenyl)-2-methoxy-5-(tetrahydrofuran-3-sulfonamido)benzamide]"
3,0.2,"COc1ccc(S(=O)(=O)NC2CCC[C@@H]2O)cc1C(=O)Nc1ccccc1Cl (stereo partly drawn) [Compound 61b, N-(2-Chlorophenyl)-5-(N-((trans)-2-hydroxycyclopentyl)sulfamoyl)-2-methoxy benzamide]"
4,1,"COc1ccc(S(=O)(=O)N[C@H]2C[C@@H](O)C2)cc1C(=O)Nc1ccc(F)cc1F [Compound 145b, N-(2,4-difluorophenyl)-5-(N-((cis)-3-hydroxycyclobutyl)sulfamoyl)-2-methoxybenzamide]"
5,2.1,"COCCOC[C@@H](C)NS(=O)(=O)c1ccc(OC)c(C(=O)Nc2ccc(F)cc2F)c1 [Compound 147b, (R)—N-(2,4-Difluorophenyl)-2-methoxy-5-(N-(1-(2-methoxyethoxy)propan-2-yl)sulfamoyl)benzamide]"
6,0.2,"COc1ccc(S(=O)(=O)NC2CCC[C@H]2O)cc1C(=O)Nc1ccccc1Cl (stereo partly drawn) [Compound 61c, N-(2-chlorophenyl)-5-(N-((trans)-2-hydroxycyclopentyl)sulfamoyl)-2-methoxy benzamide]"
7,122,"COc1ccc(S(=O)(=O)N[C@H](C)C(N)=O)cc1C(=O)Nc1ccc(F)c(C)c1 [Compound 12b, (R)-5-(N-(1-Amino-1-oxopropan-2-yl)sulfamoyl)-N-(4-fluoro-3-methylphenyl)-2-methoxybenzamide]"
8,1.3,"COc1ccc(S(=O)(=O)N[C@@H]2CC[C@H](O)C2)cc1C(=O)Nc1ccc(F)cc1 (single isomer, unassigned) [Compound 45a, N-(4-Fluorophenyl)-5-(N-((cis)-3-hydroxycyclopentyl)sulfamoyl)-2-methoxybenzamide]"
9,2,"COc1ccc(S(=O)(=O)NC2CC[C@H](O)C2)cc1C(=O)Nc1ccc(F)c(C)c1 (stereo in doubt) [Compound 15a, N-(4-Fluoro-3-methylphenyl)-5-(N-((cis)-3-hydroxycyclopentyl)sulfamoyl)-2-methoxybenzamide]"
